Tests used:
[1] = test system: Candida parapsilosis B66126; assay: Antifungal activity in vitro (resazurin susceptibility screen), Inf. D; format: cell-based; settings: Lodderomyces parapsilosis, B66126, Candida parapsilosis B66126; 37 °C, 24 hours, resa time 4 hours
Outline: (§1)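 Serial dilutions were tested up to 64 μM in RPMI-1640 with L-glutamine and 2% glucose, MOPS-buffered at pH 7.0, against an inoculum of 10^3 cfu per well. Incubation lasted from 24 h at 37° C. for yeasts to a week or more at 27° C. for dermatophytes. Growth was then read fluorimetrically after resazurin (ex 550/em 590 nm).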

[2] = test system: Scedosporium apiospermum IHEM3817; assay: Antifungal activity in vitro (resazurin susceptibility screen), Inf. H; format: cell-based; settings: Scedosporium apiospermum, IHEM3817, Scedosporium apiospermum IHEM3817; 37 °C, 48 hours, resa time 17 hours
Outline: as §1

[3] = test system: Aspergillus fumigatus B42928; assay: Antifungal activity in vitro (resazurin susceptibility screen), Inf. E; format: cell-based; settings: Aspergillus fumigatus, B42928, Aspergillus fumigatus B42928; 27 °C, 48 hours, resa time 17 hours
Outline: as §1

[4] = test system: Trichophyton mentagrophytes B70554; assay: Antifungal activity in vitro (resazurin susceptibility screen), Inf. G; format: cell-based; settings: Trichophyton mentagrophytes, B70554, Trichophyton mentagrophytes B70554; 27 °C, 7 days, resa time 24 hours
Outline: as §1

[5] = test system: Rhizomucor miehei IHEM13391; assay: Antifungal activity in vitro (resazurin susceptibility screen), Inf. K; format: cell-based; settings: Rhizomucor miehei, IHEM13391, Rhizomucor miehei IHEM13391; 37 °C, 48 hours, resa time 17 hours
Outline: as §1

[6] = test system: Microsporum canis B68128; assay: Antifungal activity in vitro (resazurin susceptibility screen), Inf. B; format: cell-based; settings: Microsporum canis, B68128, Microsporum canis B68128; 27 °C, 9 days, resa time 24 hours
Outline: as §1

[7] = test system: Mucor circinelloides IHEM21105; assay: Antifungal activity in vitro (resazurin susceptibility screen), Inf. L; format: cell-based; settings: 27 °C, 48 hours, resa time 17 hours
Outline: as §1

[8] = test system: Scedosporium prolificans IHEM21157; assay: Antifungal activity in vitro (resazurin susceptibility screen), Inf. I; format: cell-based; settings: Lomentospora prolificans, 37 °C, 48 hours, resa time 17 hours
Outline: as §1

[9] = in vivo; parameters: species or system mice; settings: mouse, po
Description: (§2) Three animals (mean weight 20±7 g for mice and 275±20 for Guinea pigs) were used per dose route, time point and formulation.
(§3) For the oral (PO) solution formulation, compound was dissolved in a 20% hydroxypropyl-β-cyclodextrin (HP-β-CD) solution at a final concentration of 1 mg/ml. HCl was added to facilitate dissolution. After dissolution, the pH was brought up to 3.7 with NaOH. Mannitol was added to make the solution isotonic. For the PO suspension formulation, compound was suspended in 0.5% methocel at a final concentration of 1 mg/ml. The formulations were stored at room temperature, protected from light and analysed quantitatively with LC-MS/MS on the day of preparation. Stability of the formulations was checked on the day of dosing.
(§4) The animals were dosed orally by gastric intubation at 10 ml/kg to obtain a final dose 10 mg/kg. Three dosed animals were sacrificed for blood sampling at 15 and 30 min, 1, 2, 3, 4, 6, 8 and 24 h after PO dose administration as a solution and at 30 min, 1, 2, 4, 6, 8 and 24 h after PO dose administration as a suspension.
(§5) Blood was collected by multiple sampling from a tail vein into Multivette® 600 K3E tubes (Sarstedt). Samples were placed immediately at approximately 4° C. and plasma was obtained following centrifugation at 4° C. for 10 minutes at approximately 1900×g. All samples were shielded from daylight and stored at ≦−18° C. prior to analysis.
(§6) Plasma samples were analysed for dosed compound using a qualified research LC-MS/MS method. The key analytical performance (linearity, upper and lower limit of quantification, accuracy and precision) of the method was reported together with the plasma concentrations.
(§7) A limited pharmacokinetic analysis was performed using WinNonlin™ Professional (Version 5.2.1). A non-compartmental analysis using the lin/log trapezoidal rule with lin/log interpolation was used for all data.

[10] = test system: Sporothrix schenkii B62482; assay: Antifungal activity in vitro (resazurin susceptibility screen), Inf. A; format: cell-based; settings: Sporothrix, B62482, Sporothrix schenkii B62482; 27 °C, 4 days, resa time 24 hours
Outline: as §1

[11] = test system: Trichophyton rubrum B68183; assay: Antifungal activity in vitro (resazurin susceptibility screen), Inf. C; format: cell-based; settings: Trichophyton rubrum, B68183, Trichophyton rubrum B68183; 27 °C, 7 days, resa time 24 hours
Outline: as §1

[12] = test system: Cryptococcus neoformans B66663; assay: Antifungal activity in vitro (resazurin susceptibility screen), Inf. F; format: cell-based; settings: Cryptococcus neoformans, B66663, Cryptococcus neoformans B66663; 37 °C, 24 hours, resa time 4 hours
Outline: as §1

[13] = test system: Rhizopus oryzae IHEM5223; assay: Antifungal activity in vitro (resazurin susceptibility screen), Inf. J; format: cell-based; settings: Rhizopus arrhizus, 37 °C, 24 hours, resa time 6 hours
Outline: as §1

[14] = In vivo pharmacokinetic determinations (bioavailability) in guinea pigs; settings: guinea pig
Description: as §2, §3, §4, §5, §6, §7

[15] = test system: Microsporum canis (strain B68128); assay: Test D.4.1: activity against M. canis in guinea-pigs after oral treatment for 7 consecutive days; format: in vivo; parameters: key to semi-quantitative lesion score (mean): lesion score 0–3.5 by severity and size of lesion; settings: oral 10 mg/kg once daily for 7 days
Description: The animals used in the tests described below were female Guinea pigs (Duncan-Hartley, Charles River, 200 g). These animals were kept in groups of 2 or 3 in cages of 56×33×20 cm^3. Food pellets (Carfil Quality) and water were available ad libitum in addition to a small daily amount of hay. Standard husbandry conditions were adopted: room temperature: 22° C., humidity level: 60% and a day-night cycle of 12 h.
For the preparation of inoculums, Microsporum canis (strain B68128) was grown on Sabouraud Dextrose Agar (SDA) plates for at least one week (7-10 days) before infection (27° C.). On the day of infection, spores were harvested by adding 4-5 ml sterile water on the plate and suspending the infectious material with a bend Pasteur pipette. From the recollected fluid, 10 μl was added to a KOVA counting chamber for determination of the number of spores in 1 square (average of several squares). If needed, additional dilutions (10× or 100×) were prepared. The average number of spores in one square×dilution×90.000=cfu/ml. An inoculum of 1×10^7 cfu/ml was prepared in a honey-water mixture (50%-50%).
In the tests described below, semi-quantitative lesion scores were given based on different clinical parameters. Scores between 0 and 3.5 were assigned based on the severity and size of the lesion. The criteria are listed in detail in Table 6.
The dorsum of the guinea pigs was shaved and further depilated for 3 minutes with Veet® creme before scarification with a steel brush. An inoculum of 10^6 cfu in 150 μl (75 mQ+75 μl honey) was applied to the wound using a micropipette with disposable tips. The animal was kept immobilized until the inoculum had completely dried. […]
vehicle: methocel 0.5%, Tween 80® (polysorbate 80), demineralised water reference compound: itraconazole at 6.25 mg/ml test compounds: prepared at 25 mg/ml, subsequently further diluted
Oral treatment (gavage 0.16 ml/100 g once daily) was started about 2 hours before infection and continued once daily for 7 consecutive days. The animals were weighed after 3 days of treatment to adjust for the dose.
Developments of lesions were evaluated following the semi-quantitative lesion scoring system (see Table 6) on days 3, 5, 7, 10, 12, 14, 17 and 20. The results are show in Table 7 (“DPI” means days post infection). Reported values in Table 7 are mean values.

Row | SMILES | IC50 [1] [µM] | IC50 [2] [µM] | IC50 [3] [µM] | IC50 [4] [µM] | IC50 [5] [µM] | IC50 [6] [µM] | IC50 [7] [µM] | IC50 [8] [µM] | IC50 [10] [µM] | IC50 [11] [µM] | IC50 [12] [µM] | IC50 [13] [µM] | bioavailability ([14]; po, 10 mg/kg) [%] | bioavailability ([9]; 10 mg/kg) [%] | further results
1 | CCc1ccc(C2=NCc3ccc(Cl)cc3-n3cccc32)cc1 [Compound 23 of WO02/34752, reference compound] | – | – | – | – | – | – | – | – | – | – | – | – | – | – | bioavailability ([14]; PO 40 mg/kg, IV 2.5 mg/kg, read-out: Bioavailability in guinea pigs): 7%
2 | CN(C/C=C/C#CC(C)(C)C)Cc1cccc2ccccc12 [Terbinafine, reference compound] | – | – | – | – | – | – | – | – | – | – | – | – | 14 | 19 | semi-quantitative lesion score (mean) ([15]; 3 DPI): 0; semi-quantitative lesion score (mean) ([15]; 5 DPI): 0; semi-quantitative lesion score (mean) ([15]; 7 DPI): 0.08; semi-quantitative lesion score (mean) ([15]; 10 DPI): 0.33; semi-quantitative lesion score (mean) ([15]; 12 DPI): 0.80; semi-quantitative lesion score (mean) ([15]; 14 DPI): 0.75; semi-quantitative lesion score (mean) ([15]; 17 DPI): 0.50; semi-quantitative lesion score (mean) ([15]; 20 DPI): 0.42

More lines, main results first:

Row | IC50 [1] [µM] | IC50 [2] [µM] | IC50 [3] [µM] | IC50 [4] [µM] | IC50 [5] [µM] | IC50 [6] [µM] | IC50 [7] [µM] | IC50 [8] [µM] | IC50 [10] [µM] | IC50 [11] [µM] | IC50 [12] [µM] | IC50 [13] [µM] | bioavailability ([14]; po, 10 mg/kg) [%] | bioavailability ([9]; 10 mg/kg) [%] | SMILES | further results
3 | > 64.6 | 9.55 | 7.94 | 12.9 | > 64.6 | 3.98 | > 64.6 | 6.03 | 11 | 1 | 0.871 | > 64.6 | – | – | CC(F)(F)c1ccc(C2=NCc3c(Cl)cc(Cl)cc3-n3cccc32)cc1 [Compound 9, 7,9-dichloro-4-[4-(1,1-difluoroethyl)phenyl]-6H-pyrrolo[1,2-a][1,4]benzodiazepine] | bioavailability [9]: 100%; Bioavailability in guinea pigs (result in words) [14]: Bioavailability in guinea pigs: not soluble
4 | 2.45 | > 64.6 | 0.55 | 1.62 | > 64.6 | 2.63 | > 64.6 | 0.759 | 5.62 | 0.457 | 0.324 | 8.32 | 70 | – | CC(F)(F)c1ccc(C2=NCc3ccc(Cl)cc3-n3cccc32)cc1 [Compound 17, 9-chloro-4-[4-(1,1-difluoroethyl)phenyl]-6H-pyrrolo[1,2-a][1,4]benzodiazepine] | melting point: 115.3 °C (dec.)
5 | – | – | – | – | – | – | – | – | – | – | – | – | – | 11 | CCc1ccc(C2=NCc3c(Cl)cccc3-n3cccc32)cc1 [Compound 22 of WO02/34752, reference compound] | bioavailability ([14]; po): 2.7%
